For 1 compound, EC50 results are on record in paper PMC9306661 (British Journal of Pharmacology, 2021).

As a reminder, the EC50 is the concentration needed to bring the measured effect to its halfway point. Low readings indicate a more potent agent, high ones a less potent agent.

Test [1] deals with T1, Cel-AVR-14B/GLC-2 (Caenorhabditis elegans, UniProt Q17328+Q17369).
T1 sequence (Q17369 22-430): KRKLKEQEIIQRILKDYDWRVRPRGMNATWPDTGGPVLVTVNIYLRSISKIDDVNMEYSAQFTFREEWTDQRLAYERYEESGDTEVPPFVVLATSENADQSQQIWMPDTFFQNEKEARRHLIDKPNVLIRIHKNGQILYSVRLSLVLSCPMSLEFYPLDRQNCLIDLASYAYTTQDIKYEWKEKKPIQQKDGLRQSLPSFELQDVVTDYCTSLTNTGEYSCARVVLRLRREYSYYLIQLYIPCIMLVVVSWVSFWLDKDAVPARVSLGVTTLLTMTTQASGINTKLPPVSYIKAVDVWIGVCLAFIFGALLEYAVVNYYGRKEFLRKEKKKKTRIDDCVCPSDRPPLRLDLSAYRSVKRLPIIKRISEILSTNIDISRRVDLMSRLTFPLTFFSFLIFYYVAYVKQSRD
T1 sequence (Q17328 23-434): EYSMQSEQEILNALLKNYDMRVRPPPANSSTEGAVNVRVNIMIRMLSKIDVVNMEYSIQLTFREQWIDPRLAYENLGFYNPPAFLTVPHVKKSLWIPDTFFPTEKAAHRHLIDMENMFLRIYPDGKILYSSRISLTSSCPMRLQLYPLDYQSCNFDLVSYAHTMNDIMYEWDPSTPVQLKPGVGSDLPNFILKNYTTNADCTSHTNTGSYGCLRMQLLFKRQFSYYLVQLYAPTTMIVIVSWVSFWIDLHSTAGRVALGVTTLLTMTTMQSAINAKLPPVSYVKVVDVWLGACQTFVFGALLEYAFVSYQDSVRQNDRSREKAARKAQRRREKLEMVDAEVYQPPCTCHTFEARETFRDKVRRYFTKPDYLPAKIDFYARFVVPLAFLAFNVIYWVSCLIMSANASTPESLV
Briefly: two-electrode voltage clamp, Xenopus oocytes. Format: cell-based. For orientation: In two-electrode clamp one electrode senses voltage and the other passes current.

The target of test [2] is T2, Pun-AVR-14B/GLC-2 (Parascaris univalens, UniProt A0A894K7G1+A0A894KE58).
T2 sequence (A0A894K7G1 19-428): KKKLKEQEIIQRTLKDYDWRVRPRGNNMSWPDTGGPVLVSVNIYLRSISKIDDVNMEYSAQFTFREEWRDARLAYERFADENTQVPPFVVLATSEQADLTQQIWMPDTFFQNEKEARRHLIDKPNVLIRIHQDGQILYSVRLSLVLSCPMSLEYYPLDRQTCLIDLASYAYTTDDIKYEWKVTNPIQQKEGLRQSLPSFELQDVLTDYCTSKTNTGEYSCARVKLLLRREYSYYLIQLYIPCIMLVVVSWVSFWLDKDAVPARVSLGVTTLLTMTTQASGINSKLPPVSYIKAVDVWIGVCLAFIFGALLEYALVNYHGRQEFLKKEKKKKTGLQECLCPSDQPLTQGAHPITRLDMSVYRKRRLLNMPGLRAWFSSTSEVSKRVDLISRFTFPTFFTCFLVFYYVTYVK
T2 sequence (A0A894KE58 21-448): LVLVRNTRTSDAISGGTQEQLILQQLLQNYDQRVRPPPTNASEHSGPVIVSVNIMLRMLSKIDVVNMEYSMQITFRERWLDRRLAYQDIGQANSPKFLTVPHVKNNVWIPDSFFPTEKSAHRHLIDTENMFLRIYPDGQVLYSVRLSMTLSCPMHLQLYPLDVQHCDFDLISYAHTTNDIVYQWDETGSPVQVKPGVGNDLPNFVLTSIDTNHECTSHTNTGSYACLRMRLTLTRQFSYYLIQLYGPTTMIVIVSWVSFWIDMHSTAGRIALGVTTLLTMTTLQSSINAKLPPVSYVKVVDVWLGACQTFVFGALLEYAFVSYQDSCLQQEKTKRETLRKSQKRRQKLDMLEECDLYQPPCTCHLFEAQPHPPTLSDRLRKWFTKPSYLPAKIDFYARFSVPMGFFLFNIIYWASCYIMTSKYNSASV
Briefly: two-electrode voltage clamp, Xenopus oocytes. Format: cell-based.

`N[C@@H](CCC(=O)O)C(=O)O` [glutamate]: the EC50 stood at 19.4 µM in test [1] and 10.9 µM in test [2].
